From patent publication US20240246968A1, “SMALL MOLECULE INHIBITORS OF KRAS G12C MUTANT” (Merck Sharp & Dohme LLC, priority 2021, published 2024)

How the values were obtained:
[1] = biological target: T1, interaction between recombinant K-Ras4B G12C mutant protein and cRAF RAS-binding domain (cRAF-RBD) (Homo sapiens, UniProt P01116, G12C); assay: Inhibitory activity on interaction between KRAS G12C and cRAF (Alpha technology); assay type: biochemical; conditions: GMPPNP-bound KRAS G12C incubated with compound at 25° C. for 1 hour, then cRAF-RBD; Alpha signal
T1 construct: made in house; host or cells: E. coli
Protocol: Interaction between recombinant K-Ras4B G12C mutant protein (amino acids 1-169, SEQ ID NO:2) and cRAF RAS-binding domain (cRAF-RBD, amino acids 50-132, Jena Biosciences GmbH) was measured using Alpha technology (PerkinElmer Inc.).
Recombinant KRAS G12C protein with an N-terminal His-tag was expressed in E. coli and purified by affinity chromatography. To prepare GTP-bound form and GDP-bound form of KRAS G12C protein. 50 μM KRAS G12C protein was incubated with 1 mM GMPPNP (Guanosine-5′-[(β,γ)-imido]triphosphate. Tetralithium salt)(Jena Bioscience GmbH) and 1 mM GDP, respectively, in a loading buffer (20 mM Tris-HCl (pH 7.5), 50 mM NaCl, 1 mM DTT and 2.5 mM EDTA) for 1 hour on ice. After the incubation, MgCl2 was added to a final concentration of 10 mM, followed by incubation at room temperature for 30 minutes. The mixture was allowed to pass through a NAP-5 column to remove free nucleotides and purified, and the resultant nucleotide-bound KRAS G12C protein was used for compound evaluation.
For the measurement of the inhibitory activity of compounds on interaction between KRAS G12C and cRAF-RBD, GMPPNP-bound KRAS G12C protein was incubated with various concentrations of compound in a reaction buffer (20 mM Tris-HCl (pH 7.5), 100 mM NaCl, 1 mM MgCl2, 1 mM TCEP. 0.1% Tween 20) at 25° C. for 1 hour. After the incubation, recombinant cRAF-RBD and Alpha detection reagents were added and incubated at room temperature for 1.5 hours for binding. Interaction of KRAS G12C and cRAF-RBD was monitored by measuring Alpha signal. Inhibition % was calculated using the signal from the reaction without test compound (DMSO control) as 0% inhibition and the signal from the reaction using GDP-bound KRAS G12C in place of GMPPNP-bound KRAS G12C as 100% inhibition. IC50 values were calculated from dose titration curve using curve fitting by XLfit software (IDBS). The following tables show the results.

[2] = biological target: Gppcp-bound recombinant K-Ras4B G12C mutant protein (amino acids 1-169, C51S/C80L/C118S) (Homo sapiens, UniProt P01116, C118S/C51S/C80L/G12C); assay: KRASG12C binding assay (LC-MS, compound binding rate); conditions: test compound final concentration 0.5 μM, 25° C., 1 hour
Protocol: As test compounds for the KRASG12C binding assay, the compounds obtained in the “Preparation of Compounds” section were used. Sample solutions each containing a test compound were prepared in the form of a 10 mM DMSO solution.
Gppcp-bound recombinant K-Ras4B G12C mutant protein (amino acids 1-169, C51S/C80L/C118S, SEQ ID NO:1) was diluted with a buffer (1×TBS, 0.1 mM TCEP, 0.25 mM MgCl2, 50 μM Gppcp) to prepare a 50 nM protein solution. K-Ras4B is the major splicing variant of K-Ras. Amino acid sequence of residues 1 to 150 including the compounds' binding region of K-Ras4B is exactly same as that of K-Ras4A, the other splicing variant (Oncotarget. 2016 Jul. 19; 7(29): 46717-46733). A sample solution containing 10 mM test compound was diluted ten-fold with DMSO to make a 1 mM sample solution, and then diluted twenty-fold with DMSO to make a 50 μM sample solution. 1 μL of a 50 μM sample solution was added to 100 μL of a 50 nM protein solution to adjust the final concentration of a test compound to be 0.5 μM in the mixture. The mixtures were stored in an incubator at 25° C. for 1 hour, and 10 μL of a 1×TBS solution containing 2% formic acid was added to stop the reaction, followed by LC-MS measurement. LC-MS measurement was performed using Xevo G2-S Q-Tof manufactured by Waters, and reverse-phase chromatography was performed with a desalting column. A mass spectrum of positive ions was obtained by electrospray. For a mass spectrum, a spectrum of polyvalent ions was collectively converted to a molecular weight by using OpenLynx software by the MaxEnt technique, and a compound binding rate was calculated from the ratio of the signal intensity of a peak that corresponds to the molecular weight of the protein to the signal intensity of a peak that corresponds to the molecular weight of the protein conjugated with the compound.
The binding assay of the test compounds was conducted at a final concentration of 0.5 μM. A binding rate of 80% or more is rated “A”, a binding rate of 60% or more and less than 80% is rated “B”, a binding rate of 40% or more and less than 60% is rated “C”, a binding rate of 20% or more and less than 40% is rated “D”, and a binding rate of less than 20% is rated “E”. N.D.=not determined. Binding rate % is the ratio of KRAS signal intensity at the molecular weight of one molecule adduct to the sum of all the KRAS signal intensity (unbound form and adducts) in mass spectrum. Thus, binding rate 100% means that only the one molecule adduct was observed without any unbound KRAS. The following tables show the results.

MIA PaCa-2 cells = assay: Growth inhibition activity on KRAS-G12C mutant cell line (MIA PaCa-2), CellTiter-Glo 3D; assay type: cell-based, human; conditions: MIA PaCa-2, 3-day culture with compound
Protocol: MIA PaCa-2 cells (given by Sumitomo Dainippon Pharma Co., Ltd.), which are a KRAS-G12C mutant human pancreas cancer cell line, were suspended in a 10% fetal bovine serum-containing RPMI1640 medium (manufactured by Fujifilm Wako Pure Chemical Corporation.). The cell suspension was seeded into each well of a 384-well U bottom microplate and cultured in an incubator containing 5% CO2 gas at 37° C. for 1 day. The compounds obtained in the “Preparation of Compounds” section were used as test compounds and were dissolved in DMSO, respectively, and each test compound was diluted with DMSO to give a concentration 500 times the final concentration. The resultant solution of the test compound in DMSO was diluted with the medium used for suspending cells and added to each well of the cell-culture plate to give a DMSO final concentration of 0.2%, followed by culture in an incubator containing 5% CO2 gas at 37° C. for another 3 days. The cell count after 3-day culture in the presence of the test compound was measured using CellTiter-Glo 3D Reagent (manufactured by Promega Corporation). All wells were added with CellTiter-Glo 3D Reagent and mixed for 10 minutes. 30 minutes after mixing, luminescence was measured by a plate reader. The growth inhibition rate was calculated from the following equation, and the concentration of the test compound at which 50/o inhibition was achieved (IC50 (nM)) was determined. The following tables show the results.
[formula] • T: the emission intensity in a well into which a test compound was added. • C: the emission intensity in a well into which a test compound was not added.

Compound | IC50 [1] [µM] | IC50 (MIA PaCa-2 cells) [µM] | IC50 (MIA PaCa-2 cells; Homo sapiens, MIA PaCa-2, 72 h) [µM] | binding rate [2]
Cn1cnc2c(Cl)c(-c3cccn4c(C(=O)c5cc(F)c(NC(=O)/C=C/CNC(C)(C)C)c(F)c5)ccc34)c(Cl)cc21 (single isomer, unassigned) [Example 20-1, (E)-4-(tert-butylamino)-N-(4-(8-(4,6-dichloro-1-methyl-1H-benzo[d]imidazol-5-yl)indolizine-3-carbonyl)-2,6-difluorophenyl)but-2-enamide] | 0.2 | 0.2 |  | A (A binding rate of 80% or more is rated “A”)
CO[C@H]1CC[C@H](NC/C=C/C(=O)Nc2c(F)cc(C(=O)c3ccc4c(-c5c(C(F)(F)F)cc6c(nc(C)n6C)c5Cl)cccn34)c(F)c2F)CC1 [Example 104, (E)-N-(4-(8(4-chloro-1,2-dimethyl-6-(trifluoromethyl)-1H-benzo[d]imidazol-5-yl)indolizine-3-carbonyl)-2,3,6-trifluorophenyl)-4-(((1r,4r)-4-methoxycyclohexyl)amino)but-2-enamide] | 0.0789 |  | 0.0904 | A (A binding rate of 80% or more is rated “A”)
CO[C@H]1CC[C@H](NC/C=C/C(=O)Nc2c(F)cc(C(=O)c3c(C)nc4c(-c5cc6nc(C)n(C)c6cc5C(F)(F)F)cccn34)cc2F)CC1 [Example 51, (E)-N-(4-(8-(1,2-dimethyl-6-(trifluoromethyl)-1H-benzo[d]imidazol-5-yl)-2-methylimidazo[1,2-a]pyridine-3-carbonyl)-2,6-difluorophenyl)-4-(((1r,4r)-4-methoxycyclohexyl)amino)but-2-enamide] | 0.057 |  | 0.12 | A (A binding rate of 80% or more is rated “A”)
Cc1cc2c(ncn2C)c(C)c1-c1cccn2c(C(=O)c3cc(F)c(NC(=O)/C=C/CNC(C)(C)C)c(F)c3)ccc12 [Example 29, (E)-4-(tert-butylamino)-N-(2,6-difluoro-4-(8-(1,4,6-trimethyl-1H-benzo[d]imidazol-5-vi)indolizine-3-carbonyl)phenyl)but-2-enamide] | 0.09 |  | 0.12 | A (A binding rate of 80% or more is rated “A”)
CCc1nc2cc(-c3cccn4c(C(=O)c5cc(F)c(NC(=O)/C=C/CN[C@H]6CC[C@H](OC)CC6)c(F)c5)ccc34)c(C(F)(F)F)cc2n1C [Example 3, (E)-N-(4-(8-(2-ethyl-1-methyl-6-(trifluoromethyl)-1H-benzo[d]imidazol-5-yl)indolizine-3-carbonyl)-2,6-difluorophenyl)-4-(((1r,4r)-4-methoxycyclohexyl)amino)but-2-enamide] | 0.072 |  | 0.052 | A (A binding rate of 80% or more is rated “A”)

These reach a lower IC50 [1]. Values come first.

IC50 [1] [µM] | IC50 (MIA PaCa-2 cells) [µM] | IC50 (MIA PaCa-2 cells; Homo sapiens, MIA PaCa-2, 72 h) [µM] | Compound | binding rate [2]
0.054 |  | 0.054 | Cc1nc2cc(-c3cccn4c(C(=O)c5cc(F)c(NC(=O)/C=C/CNC6CCOCC6)c(F)c5)ccc34)c(C(F)(F)F)cc2n1C [Example 24, (E)-N-(4-(8(1,2-dimethyl-6-(trifluoromethyl)-1H-benzo[d]imidazol-5-yl)indolizine-3-carbonyl)-2,6-difluorophenyl)-4-((tetrahydro-2H-pyran-4-yl)amino)but-2-enamide] | A (A binding rate of 80% or more is rated “A”)
0.0174 | 0.191 |  | C=Cc1cc(C(=O)c2cc(F)c(NC(=O)/C=C/CNC3(C)CC3)c(F)c2)n2cccc(-c3c(OC)cc4c(nc(C)n4C)c3F)c12 (single isomer, unassigned) [Example 111-2, (E)-N-(2,6-difluoro-4-(8-(4-fluoro-6-methoxy-1,2-dimethyl-1H-benzo[d]imidazol-5-yl)-1-vinylindolizine-3-carbonyl)phenyl)-44-((1-methylcyclopropyl)amino)but-2-enamide] | A (A binding rate of 80% or more is rated “A”)
0.028 | 0.01 |  | COc1c(-c2cccn3c(C(=O)c4cc(F)c(NC(=O)/C=C/CNC5CCOCC5)c(F)c4)ccc23)c(C(F)(F)F)cc2c1nc(C)n2C (single isomer, unassigned) [Example 61-2, (E)-N-(2,6-difluoro-4-(8-(4-methoxy-1,2-dimethyl-6-(trifluoromethyl)-1H-benzo[d]imidazol-5-yl)indolizine-3-carbonyl)phenyl)-4-((tetrahydro-2H-pyran-4-yl)amino)but-2-enamide] | A (A binding rate of 80% or more is rated “A”)
0.0192 | 0.0216 |  | COc1c(-c2cccn3c(C(=O)c4cc(F)c(NC(=O)/C=C/CNC5(C)CC5)c(F)c4)c(C)nc23)c(C(F)(F)F)cc2c1nc(C)n2C (single isomer, unassigned) [Example 109-1, (E)-N-(2,6-difluoro-4(8-(4-methoxy-1,2-dimethyl-6-(trifluoromethyl)-1H-benzo[d]imidazol-5-yl)-2-methylimidazo[1,2-a]pyridine-3-carbonyl)phenyl)-4-((1-methylcyclopropyl)amino)but-2-enamide] | A (A binding rate of 80% or more is rated “A”)
0.034 |  | 0.23 | CO[C@H]1CC[C@H](NC/C=C/C(=O)Nc2c(F)cc(C(=O)c3ccc4c(-c5c(C)cc6c(nc(COC(=O)/C=C/CN[C@H]7CC[C@H](OC)CC7)n6C)c5Cl)cccn34)cc2F)CC1 [Example 59, (4-chloro-5-(3-(3,5-difluoro-4-((E)-4-(((1r,4r)-4-methoxycyclohexyl)amino)but-2-enamido)benzoyl)indolizin-8-yl)-1,6-dimethyl-1H-benzo[d]imidazol-2-yl)methyl (E)-4-(((1r,4r)-4-methoxycyclohexyl)amino)but-2-enoate] | A (A binding rate of 80% or more is rated “A”)
